Measurements from patent US20140065223A1, “PERFLUORINATED COMPOUNDS FOR THE NON-VIRAL TRANSFER OF NUCLEIC ACIDS” (priority 2011, published 2014).

Test system: Cells of line HEK 293
Test: Detection of absorption into the cell: transfection of HEK 293 cells, microscopy / confocal microscopy of rhodamine coloration
Assay type: cell-based
Protocol: To follow the path of the perfluorinated nucleic acids into the cell, the following construct with rhodamine linking was used: The compound was first dissolved in tetrahydrofuran (THF), and this solution was subsequently titrated in isopropanol. […] Cells of line HEK 293 were used as cell culture Transfection was performed one day after cell enlargement. As a control, a transfection was performed with pure rhodamine particles of equivalent rhodamine concentration to test the perfluorinated nucleic acids. […] One explanation of this is possible that the rhodamine is bound to the PFC particle in the perfluorinated nucleic acids and sinks to the bottom as a small particle, whereas the dye is completely dissolved in the medium with pure rhodamine. […] The endosomes and lysosomes filled with perfluorinated nucleic acids were detected throughout the cell cytoplasm.

rhodamine [pure rhodamine]
coloration of the cells (20 minutes after transfection): no defined coloration could be seen | coloration of the cells (24 hours after transfection): substantially weaker and diffuse in comparison on the cell surface instead of in the cytoplasm and granular
